# Results: PubChem BioAssay (NCI)
#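 48-hour exposure; five concentrations; linearly interpolated endpoints. GI50 marks 50% less growth. At the TGI there is no net growth.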
# What was measured:
# Assay in all cases: growth of human tumour cells (NCI), 48 h
# [1] = test system: A498 renal
# [2] = test system: CAKI-1 renal
# [3] = test system: DU-145 prostate
# [4] = test system: K-562 leukemia
# [5] = test system: KM12 colon
# [6] = test system: RXF 393 renal
# [7] = test system: SNB-19 CNS
# [8] = test system: RPMI-8226 leukemia
SMILES,GI50 [1],TGI [1],GI50 [2],TGI [2],GI50 [3],TGI [3],GI50 [4],TGI [4],GI50 [5],TGI [5],GI50 [6],TGI [6],GI50 [7],TGI [7],TGI [8],GI50 [8]
CCCC(=O)OCC1OC(n2cnc3c(=S)nc[nH]c32)C(OC(=O)CCC)C1OC(=O)CCC (centres undefined),33.2 µM,> 100 µM,2.51 µM,23.5 µM,3.06 µM,> 100 µM,1700 nM,> 100 µM,4.99 µM,> 100 µM,26 µM,> 100 µM,46.4 µM,> 100 µM,–,–
CCOC(=O)/C(=C\c1ccccc1)C(=O)O,–,> 100 µM,–,> 100 µM,–,–,–,> 100 µM,–,> 100 µM,–,–,–,> 100 µM,> 100 µM,–
NC(=O)COC(=O)c1c(Cl)nc2sccn12,–,> 100 µM,–,> 100 µM,–,–,–,> 100 µM,–,> 100 µM,–,–,–,> 100 µM,> 66.4 µM,–
O=C(N/C(=C\c1cccc([N+](=O)[O-])c1)c1nc2ccc([N+](=O)[O-])cc2[nH]1)c1ccccc1,–,–,–,> 100 µM,–,–,–,> 100 µM,–,> 100 µM,–,> 100 µM,–,> 100 µM,–,–
CCOC1Oc2ccc(C)cc2C(=O)/C1=C\Nc1ccc(C(N)=O)cc1 (centres undefined),–,–,20.6 µM,44.8 µM,21.7 µM,60.4 µM,22600 nM,66.6 µM,16.6 µM,34.3 µM,22.9 µM,49 µM,18.4 µM,> 100 µM,90.5 µM,18.6 µM
O=C(O)CCSC(=O)Nc1ccc([N+](=O)[O-])cc1,–,> 100 µM,–,> 100 µM,–,–,–,> 100 µM,–,> 100 µM,–,> 100 µM,–,> 100 µM,> 100 µM,–
O=C(CCN(C(=O)O)S(=O)(=O)c1ccc(NC(=O)c2ccccc2)cc1)NC1CCCCC1,–,> 100 µM,–,> 100 µM,–,–,–,> 100 µM,–,> 100 µM,–,–,–,> 100 µM,41.8 µM,–
CCN(CC)C(c1ccc(N(C)C)cc1)C(c1ccc(N(C)C)cc1)N(CC)CC (centres undefined),–,> 73 µM,–,> 73 µM,–,–,–,> 73 µM,–,> 73 µM,–,> 73 µM,–,> 73 µM,> 73 µM,–
COc1ccc2nc3c(C(=O)NCCN(C)C)cccc3nc2c1,–,7.54 µM,–,> 100 µM,–,–,–,29.5 µM,–,> 100 µM,–,> 1 µM,–,37.9 µM,–,–
O=C(CC1(O)C(=O)Nc2c(Cl)ccc(Cl)c21)c1ccc(F)cc1 (centres undefined),–,–,–,> 100 µM,–,–,–,> 100 µM,–,> 100 µM,–,92.2 µM,–,> 100 µM,47.9 µM,–
C=C(C[C@](O)(C(=O)/C=C/c1ccc(Cl)cc1)C(=O)OC)c1ccccc1,11.6 µM,23.8 µM,7 µM,20.7 µM,3.03 µM,10.7 µM,2120 nM,8.8 µM,1.81 µM,4.24 µM,1.66 µM,3.31 µM,3.69 µM,12.8 µM,–,–
CCc1ccccc1NC(=O)C1=C(C)NC(C)=C(C(=O)Nc2ccccc2CC)C1c1ccc2c(c1)OCO2,–,81.5 µM,–,88.5 µM,–,–,–,> 100 µM,–,50.6 µM,–,94.1 µM,–,> 100 µM,49.5 µM,–
Nc1c(-c2ccc(Cl)cc2)[n+]([O-])c2ccccc2[n+]1[O-],–,> 100 µM,–,> 100 µM,–,–,–,> 100 µM,–,> 100 µM,–,–,–,> 100 µM,> 100 µM,–
